Values quoted from earlier work, collected in patent publication US11375717B2, “Combinations of acaricides and insect growth regulators for control of fleas without emesis in animals” (Piedmont Animal Health Inc., priority 2017, dated 2022).

Details: 30 mg/kg in cats and 10 mg/kg in dogs

O=C(NC(=O)c1c(F)cccc1F)Nc1cc(Cl)c(OC(F)(F)C(F)C(F)(F)F)cc1Cl (stereo not shown) [Lufenuron]
Emesis: common side effect
